System: mold
Assay: Mold growth on inoculated cementitious material samples
Assay type: cell-based
Details: cementitious materials formed from mixtures including calcium propionate solutions (0.05, 0.1, 0.2% by weight of concrete ingredients); inoculated with a composition of mold; after two weeks in an environment conducive of mold growth
Excerpt: Samples of cementitious materials formed from a cementitious mixture including the calcium propionate solutions were inoculated with a composition of mold and placed in an environment conducive of mold growth.

CCC(=O)[O-].CCC(=O)[O-].[Ca+2] [calcium propionate]
mold propagation on the cementitious materials: no mold propagation was observed
